Test [1] can be described thus: Comparison in a strawberry drink. The settings on record: 0.5 ppm, 7% sucrose, 0.1% citric acid, strawberry flavour 0.015%. An excerpt:
Comparison in a Strawberry Drink
Base is 7% sucrose, 0.1% citric acid, and a proprietary strawberry flavour @0.015%

A short description of test [2]: Strawberry flavoured sugar sweetened yoghurt. The settings on record: 2 ppm, 1.5% fat yoghurt base, 8% sucrose, strawberry flavour 0.015%. An excerpt:
Strawberry Flavoured Sugar Sweetened Yoghurt
The base consisted of a 1.5% fat yoghurt base, sweetened with 8% sucrose by weight, flavoured with a proprietary strawberry flavour @ 0.015%.

Structures are written as SMILES.

Turning to `CCCCCCCCCCCCCCCCCC(=O)NCCCC(=O)O` [C18:0-gaba], the taste description entry in test [1] was “mild creamy, fruity, juicy and long lasting”; in test [2], “juicy full, jammy”.

The record behind these values is US11832638B2, “N-acyl derivatives of gamma amino-butyric acid and beta alanine as food flavouring compounds” (GIVAUDAN SA, priority 2012, dated 2023).
